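Protocol summary: plate cells (96-well), add compound at 5 concentrations, incubate 48 h, interpolate endpoints linearly. Here, GI50 denotes the concentration required for 50% inhibition of growth.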 Calls of active or inactive are those of the source. Rule as the data show it: active = GI50 up to about 1.1 µM and inactive = higher.
Experiments:
Test in all cases: DTP human tumour cell line panel, 48 h
BT-549 = test system: BT-549
KM-20L2 = test system: KM-20L2
SNB-78 = test system: SNB-78
DMS-273 = test system: DMS-273
HOP-18 = test system: HOP-18
DLD-1 = test system: DLD-1
XF498 = test system: XF498
RXF 631 = test system: RXF 631
M19-MEL = test system: M19-MEL

Row | SMILES | GI50 (BT-549) | GI50 (KM-20L2) | GI50 (SNB-78) | GI50 (DLD-1) | GI50 (M19-MEL) | also measured
1 | N=C1OC(c2c[nH]c3ccc(OCc4ccccc4)cc23)C(O)=C1O (stereo not drawn) | > 100 µM (inactive) |  |  |  |  | 
2 | O=c1cc(-c2ccccc2)oc2c1ccc1nc3ccccc3c(O)c12 | 33.5 µM (inactive) |  |  |  |  | 
3 | Cc1ccc(CC(Cc2ccc(C)cc2C(=O)O)C(=O)O)cc1 (stereo not drawn) | > 100 µM (inactive) |  |  |  |  | 
4 | COC(=O)C(Cc1c(C2Nc3ccccc3C2CC(NC(C)=O)C(=O)OC)[nH]c2ccccc12)NC(C)=O (stereo not drawn) | > 100 µM (inactive) |  |  |  |  | 
5 | O=[N+]([O-])c1ccc(Cc2nc3cc4ccccc4cc3[nH]2)cc1C(F)(F)F | 18.2 µM (inactive) |  |  |  |  | 
6 | CN(CC#N)C1CCCC[C@H]1O (stereo partly drawn) |  | > 100 µM (inactive) | > 100 µM (inactive) | > 100 µM (inactive) |  | GI50 (DMS-273): > 100 µM (inactive); GI50 (HOP-18): > 100 µM (inactive); GI50 (XF498): > 100 µM (inactive)
7 | CN(NC(=O)c1cccs1)C1=NCCCCN1 | > 100 µM (inactive) |  |  |  |  | 
8 | CCC1=NC(N/N=C/c2ccccc2O)=N/C1=C\c1ccccc1O | 12.1 µM (inactive) |  |  |  |  | 
9 | C#C[C@]1(O)CC[C@H]2[C@@H]3CCC4=C/C(=N/OC(=O)c5cccc6c(=O)c7ccccc7[nH]c56)CC[C@@H]4[C@H]3CC[C@@]21C | 37.2 µM (inactive) |  |  |  |  | 
10 | CC1=C(CO)C(=O)OC(C(C)C2CCC3C4CC5OC56C(O)C(N5CC5)=CC(=O)C6(C)C4CCC23C)C1 (stereo not drawn) |  | 3.05 µM (inactive) | 5.61 µM (inactive) | 4.93 µM (inactive) | 11.4 µM (inactive) | GI50 (DMS-273): 5.65 µM (inactive); GI50 (RXF 631): 11.5 µM (inactive); GI50 (XF498): 5.3 µM (inactive)
11 | CCOC(=O)CC(=O)ON(C)C(C)=O |  | > 100 µM (inactive) | > 100 µM (inactive) | > 100 µM (inactive) | > 100 µM (inactive) | GI50 (XF498): > 100 µM (inactive)
12 | COc1cc(C(=O)Nc2c3ccccc3nc3ccccc23)cc(OC)c1OC | > 100 µM (inactive) |  |  |  |  | 
13 | CCC1NC(=O)C(NC(=O)c2ncccc2O)C(C)OC(=O)C(c2ccccc2)NC(=O)C2CC(=O)CCN2C(=O)C(Cc2ccccc2)N(C)C(=O)C2CCCN2C1=O (stereo not drawn) | > 100 µM (inactive) |  |  |  |  | 
14 | O=c1cc(O)c2c(O)cc(O)cc2o1 | > 100 µM (inactive) |  |  |  |  | 
15 | COC1CC(OC2C(C)OC(OC3C(C)OC(OC4C(C)OC(O[C@H]5CC[C@@]6(C)C(=CC[C@]7(O)[C@@H]6C[C@@H](OC(=O)/C=C(\C)C(C)C)[C@@]6(C)[C@]7(O)CC[C@@]6(O)C(C)=O)C5)CC4OC)CC3OC)CC2OC)OC(C)C1O (stereo partly drawn) | > 12.5 µM (inactive) |  |  |  |  | 
16 | O=[N+]([O-])c1ccc(-c2ccc([C@H]3CC(c4cc(F)c(Cl)cc4Cl)=NN3)o2)cc1 | 25.4 µM (inactive) |  |  |  |  | 
17 | N#Cc1c2nc3ccccc3nc2n2ccc3ccccc3c12 |  |  | > 100 µM (inactive) | > 100 µM (inactive) | > 100 µM (inactive) | GI50 (DMS-273): > 100 µM (inactive); GI50 (HOP-18): > 100 µM (inactive)
18 | COc1cc2ccc(CC#N)cc2cc1OC |  | > 100 µM (inactive) | > 100 µM (inactive) | > 100 µM (inactive) | > 100 µM (inactive) | GI50 (DMS-273): > 100 µM (inactive); GI50 (RXF 631): > 100 µM (inactive); GI50 (XF498): > 100 µM (inactive)
19 | CN1CC[N+](C)=C1c1ccccc1 | > 100 µM (inactive) |  |  |  |  | 
20 | COC(=O)C1Cc2ccc(O)c(O)c2CN1 (stereo not drawn) | 18.3 µM (inactive) |  |  |  |  | 
21 | O=C1NCCCNCCCNCCCNC(=O)c2cccc1n2 | > 100 µM (inactive) |  |  |  |  | 
22 | CCC12CCCN(Cc3ccccc3)C1c1c(n(C)c3ccccc13)C(CO)C2 (stereo not drawn) |  | 29.3 µM (inactive) |  | 61.5 µM (inactive) | 59 µM (inactive) | GI50 (DMS-273): 46.5 µM (inactive); GI50 (RXF 631): 56 µM (inactive); GI50 (XF498): 43.3 µM (inactive)
23 | CC(=O)OCC1OC(N2C(C)=C(C(C)=O)C(c3ccco3)C(C#N)=C2S)C(OC(C)=O)C(OC(C)=O)C1OC(C)=O (stereo not drawn) | > 100 µM (inactive) |  |  |  |  | 
24 | Nc1c2c(nc3ccccc13)CCCc1ccccc1-2 | 28.8 µM (inactive) |  |  |  |  | 
25 | CN(C)c1ccc(/C=c2\sc3nnc(Cc4ccccc4)n3c2=O)cc1 |  | > 10 µM (inactive) | > 10 µM (inactive) | > 10 µM (inactive) | > 100 µM (inactive) | GI50 (DMS-273): 33.7 µM (inactive); GI50 (HOP-18): > 10 µM (inactive); GI50 (XF498): > 10 µM (inactive)
26 | c1ccc(C(c2ccccc2)c2cccnc2)cc1 |  | > 100 µM (inactive) | > 100 µM (inactive) | > 100 µM (inactive) | > 100 µM (inactive) | GI50 (DMS-273): > 100 µM (inactive); GI50 (RXF 631): > 100 µM (inactive); GI50 (HOP-18): > 100 µM (inactive)
27 | O=C(Oc1ccc(Cl)cc1[N+](=O)[O-])c1ccccc1 |  | > 100 µM (inactive) | > 100 µM (inactive) | > 100 µM (inactive) | > 100 µM (inactive) | GI50 (DMS-273): > 100 µM (inactive); GI50 (HOP-18): > 100 µM (inactive); GI50 (XF498): 0.0435 µM (active)
28 | CC(=O)N/C(=C\c1cccc([N+](=O)[O-])c1)c1nc2ccc3c(c2[nH]1)C(=O)c1ccccc1C3=O |  | > 100 µM (inactive) | > 57.9 µM (inactive) | 12.2 µM (inactive) | > 100 µM (inactive) | GI50 (RXF 631): 32.6 µM (inactive); GI50 (XF498): 52.5 µM (inactive)
29 | CC1=C(/C=C/C(C)=C/C=C/C(C)=C/C(=O)OCC2OC(n3cc(F)c(=O)[nH]c3=O)CC2OC(=O)/C=C(C)/C=C/C=C(C)/C=C/C2=C(C)CCCC2(C)C)C(C)(C)CCC1 (stereo not drawn) | 29.6 µM (inactive) |  |  |  |  | 
30 | O=C1C=CC(=O)C(CNc2ccc(C(=O)OCc3ccccc3)cc2)=C1 | 2.56 µM (inactive) |  |  |  |  | 

Source: ChEMBL document CHEMBL1201862, “PubChem BioAssay data set” (2004)
